These are literature values, as cited in US20050169991A1, “Sustained release torsemide dosage forms” (Penwest Pharmaceuticals Co., priority 2003, published 2005).

For this data set the following is noted: in vivo.

Each structure is given as a SMILES string.

For the molecule `Cc1cccc(Nc2ccncc2S(=O)(=O)NC(=O)NC(C)C)c1` [Torsemide], the half-life is 6 h.

The term half-life denotes how long it takes for the measured level to halve.
